Results: patent publication US10315990B2, “Isothiocyanate compounds and isothiocyanate XPO1 protein inhibitor drugs thereof” (DRIVINGFORCE THERAPEUTICS Co., Ltd., priority 2015, dated 2019)

Assays:
TNF-α = assay: Serum TNF-α level of IBD animal model (ELISA); format: in vivo, SD rats; conditions: 80 mg/kg, three days after making the TNBS model
Description: (§1) Inflammatory bowel disease is an autoimmune disease. […] The therapeutic effect of the representative compound for the immune system disease or inflammation can be assessed by detecting change in levels of some important cytokines such as TNF-α and IL-6 at downstream of the signal path.

[1] = test system: SK-OV3 (high metastasis type ovarian cancer cell line); assay: Ovarian cancer intraperitoneal metastasis animal model; format: in vivo, nudemice (BALB/c-nu/nu); conditions: Mus musculus, SK-OV-3, ip; for response vs control in vivo at 80 mg/kg: 504 h, 80 mg/kg intraperitoneal injection once a day for 3 weeks, read-out: T/C (%); for mortality at 80 mg/kg: 720 h, six mice per group, read-out: Mortality (within 30 days) (converted)
Description: The ovarian cancer intraperitoneal metastasis animal model is one of most classic animal models for studying anti-ovarian cancer metastasis drug. Sixty 5 to 6-week-old female nudemice with similar weight (BALB/c-nu/nu) were chosen. SK-OV3 (high metastasis type ovarian cancer cell line) stably expressing green fluorescence protein was screened, and prepared into a cell suspension of 2×10^6 cells/100 μl with serum-free PRMI1640 medium. […] Three weeks later, the cancer was detected with a small animal in vivo imaging apparatus (Xenogen, School of Medicine, Shanghai Jiaotong University) and photos thereof were taken. […] In the table, T represents the drug-treated group, and C represents the blank control group. T/C is (V/V0 of compound-treated group)/(V/V0 of blank control group) in which V represents the cancer volume of mouse on the day the detection was performed, and V0 represents the cancer volume of mouse on the day the administration begun.

NCI-H1975 = assay: cells; format: cell-based; conditions: Homo sapiens; NCI-H1975, 72 hours; read-out: IC50
Description: (§2) NCI-H1975 and NCI-H1650 are two typical high metastasis type lung cancer cell lines. The therapeutic effect of the representative compound for the metastasis type lung cancers can be preliminarily assessed by detecting the inhibitory activity of the representative compound for the two cell lines. The lung cancer cell line was inoculated on 96-well cell culture plate in an amount of 6000 cells per well and cultured at 37° C. for 24 hours, and then treated solely with the compound added therein and cultured. Seventy-two hours later, MTT or CCK-8 method was used to detect the inhibitory activity of the compound for the two lung cancer cell lines.

NCI-H1650 = assay: cells; format: cell-based; conditions: Homo sapiens; NCI-H1650, 72 hours; read-out: IC50
Description: as §2

SW620 = assay: Inhibitory activity for high metastasis type colon cancer cell line (MTT or CCK-8); format: cell-based; conditions: Homo sapiens, SW-620; SW620, 72 hours; read-out: IC50
Description: (§3) SW620 and HCT116 are two typical high metastasis type colon cancer cell lines. The colon cancer cell line was inoculated on 96-well cell culture plate in an amount of 6000 cells per well and cultured at 37° C. for 24 hours, and then treated solely with the compound added therein and cultured. Seventy-two hours later, MTT or CCK-8 method was used to detect the inhibitory activity of the compound for the two high metastasis type colon cancer cell lines.

HCT116 = assay: as above; format: cell-based; conditions: Homo sapiens, HCT-116; HCT116, 72 hours; read-out: IC50
Description: as §3

XPO1 protein = biological target: T1, XPO1 protein (Homo sapiens, UniProt O14980); assay: Inhibitory activity for XPO1 protein (NES-GFP nuclear export, laser confocal microscope); format: cell-based; conditions: NES-GFP nuclear export, cells treated for 2 hours
T1 construct: Sixteen hours later, NES-GFP plasmid was transfected with liposome; endogenous in cells
Description: NES (nuclear export signal) is a nuclear export signal peptide recognized by XPO1 protein. XPO1 recognizes NES sequence peptide segment of biomacromolecule and exports the biomacromolecule out of nucleus. NES-GFP protein is obtained by co-expressing green fluorescence protein GFP and NES sequence peptide segment by using a eukaryotic expression plasmid. Inhibitory activity of the representative compound for XPO1 protein can be assessed by detecting influence of the compound on NES-GFP cell localization.
The cells were digested with trypsin, counted, and inoculated on 96-well plate in an amount of 1.5×10^4 cells per well. Sixteen hours later, NES-GFP plasmid was transfected with liposome.

HMLE-Snail cell line = assay: Formation of HMLE-Snail cell line spheroids; format: cell-based; conditions: 10 μg/ml, treated for 24 hours; control = 100; read-out: Colony (%): cell colony number of drug-treated group/cell colony number of control group × 100%
Description: HMLE-Snail cell line is one of most classic cell models for studying tumor cell metastasis and EMT path. HMLE-Snail cell line highly expresses Snail protein, and thus one of most remarkable features thereof is that it has spherical cellular morphology (spheroid). […] The HMLE-Snail cell line used in the present invention was donated by Dr. Robert Weinberg from America Massachusetts Whitehead Institute. HMLE-Snail cells were suspended in a liquid culture medium (in which B-27 and N-2 were added, purchased from America Invitrogen Corporation) containing DMEM/F12 in a ratio of 1:1, in an amount of 1.0×10^3 cells/ml, and cultured in an ultra low attachment culture plate so as to allow spheroids to be formed. Seven days later, spheroids were collected by centrifugation, and counted. […] Docetaxel is a common clinical chemotherapy drug.

IL-6 = assay: Serum IL-6 level of IBD animal model (ELISA); format: in vivo, SD rats; conditions: 80 mg/kg, three days after making the TNBS model
Description: as §1

U2932 = assay: Inhibitory activity for high metastasis type lymphoma cell line (MTT or CCK-8); format: cell-based; conditions: Homo sapiens; U2932, 72 hours; read-out: IC50
Description: (§4) Jeko-1, Raji and U2932 are three typical high metastasis type lymphoma cell lines. The lymphoma cell line was inoculated on 96-well cell culture plate in an amount of 6000 cells per well and cultured at 37° C. for 24 hours, and then treated solely with the compound added therein and cultured. Seventy-two hours later, MTT or CCK-8 method was used to detect the inhibitory activity of the compound for the two high metastasis type lymphoma cell lines.

Jeko-1 = assay: as above; format: cell-based; conditions: Homo sapiens; Jeko-1, 72 hours; read-out: IC50
Description: as §4

Raji = assay: as above; format: cell-based; conditions: Homo sapiens, 72 hours, read-out: IC50
Description: as §4

IBD animal model = assay: Macroscopic pathological changes of IBD animal model (enteroclysis with TNBS); format: in vivo, SD rats; conditions: 80 mg/kg intragastrically daily, TNBS rats, score 0-5, 10 animals
Description: Eight-week-old male SD rats (10 rats per group) were fasted for 24 hours and anaesthetized with diethyl ether. 50% ethanol and TNBS (2,4,6-trinitrobenzenesulfonic acid) were mixed to prepare a solution. In the IBD model group, a tube made of vinyl resin was inserted 5 cm from anus, and enteroclysis was performed with the TNBS solution in a dose of 100 mg/kg. The rats were hung upside down 30 seconds later after the enteroclysis to ensure no leakage of the TNBS solution. In the control group, the TNBS solution was replaced with normal saline with which enteroclysis was performed. Seven days later after the enteroclysis with the TNBS solution or normal saline, animals were sacrificed and dissected. […] Two weeks later after treated with the drugs, the animals were sacrificed and dissected, and large intestine thereof was taken out and fixed in 4% formalin solution for 30 minutes. The large intestine of the animals was cut lengthwise from the mesentery side to take photos for rectum portion and measure the weight of rectum. Based on the macroscopic observation and judgment score (Table 2-1), ulceration and bleeding states of rectum portion were scored according to the macroscopic observation scoring standard.

T1 sequence (O14980 whole entry, species assumed): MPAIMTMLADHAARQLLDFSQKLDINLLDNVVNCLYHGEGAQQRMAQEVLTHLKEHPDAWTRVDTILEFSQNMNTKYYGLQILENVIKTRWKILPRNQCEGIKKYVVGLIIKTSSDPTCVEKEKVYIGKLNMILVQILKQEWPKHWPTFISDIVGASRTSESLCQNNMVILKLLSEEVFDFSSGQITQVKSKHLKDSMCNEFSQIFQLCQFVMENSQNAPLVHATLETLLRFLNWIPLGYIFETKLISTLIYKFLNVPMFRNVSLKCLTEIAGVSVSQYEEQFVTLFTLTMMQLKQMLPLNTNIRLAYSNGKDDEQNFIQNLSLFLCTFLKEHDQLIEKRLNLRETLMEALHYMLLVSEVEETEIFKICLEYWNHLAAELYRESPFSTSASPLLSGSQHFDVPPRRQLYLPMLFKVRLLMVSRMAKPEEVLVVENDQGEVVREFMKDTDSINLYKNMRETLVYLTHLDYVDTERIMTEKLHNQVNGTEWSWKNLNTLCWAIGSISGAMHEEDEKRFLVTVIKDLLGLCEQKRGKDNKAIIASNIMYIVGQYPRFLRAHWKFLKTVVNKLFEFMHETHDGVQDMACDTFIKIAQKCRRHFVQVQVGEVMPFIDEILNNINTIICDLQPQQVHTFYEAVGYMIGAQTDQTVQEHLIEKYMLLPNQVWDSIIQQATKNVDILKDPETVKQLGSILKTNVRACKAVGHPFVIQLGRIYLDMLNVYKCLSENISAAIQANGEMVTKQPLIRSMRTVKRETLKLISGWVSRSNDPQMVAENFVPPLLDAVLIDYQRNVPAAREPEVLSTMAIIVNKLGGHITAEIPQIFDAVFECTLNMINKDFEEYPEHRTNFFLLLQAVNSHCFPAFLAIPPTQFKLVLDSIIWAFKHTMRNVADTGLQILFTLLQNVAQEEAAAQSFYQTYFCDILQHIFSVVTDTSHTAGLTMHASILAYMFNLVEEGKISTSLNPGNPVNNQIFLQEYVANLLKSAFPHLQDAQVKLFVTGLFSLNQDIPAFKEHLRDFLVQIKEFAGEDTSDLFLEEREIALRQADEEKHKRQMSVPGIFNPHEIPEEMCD

SMILES | Serum TNF-α level, Animal-1 (TNF-α) | Serum TNF-α level, Animal-2 (TNF-α) | Serum TNF-α level, Animal-3 (TNF-α) | response vs control in vivo at 80 mg/kg [1] | mortality at 80 mg/kg [1] | IC50 (NCI-H1975) | IC50 (NCI-H1650) | IC50 (SW620) | IC50 (HCT116) | Activity (μM): inhibitory activity for XPO1 protein (full inhibitory concentration) (XPO1 protein) | activity at 10 µg/mL (HMLE-Snail cell line) | Serum IL-6 level, Animal-1 (IL-6) | Serum IL-6 level, Animal-2 (IL-6) | Serum IL-6 level, Animal-3 (IL-6) | IC50 (U2932) | IC50 (Jeko-1) | IC50 (Raji) | Macroscopic pathological score (IBD animal model)
CCC[S+]([O-])/C=C/CCN=C=S (centres unmarked) [Compound F-01, reference compound] | 2.0 ng/mL | 1.7 ng/mL | 1.9 ng/mL | 37% | 0% | 6.9 µM | 5.4 µM | 4.1 µM | 3.5 µM | 10 to 15 µM | 60 to 65% | 1.8 ng/mL | 1.9 ng/mL | 2.0 ng/mL | 5.2 µM | 3.5 µM | 3.7 µM | –
[O-][S+](/C=C/CCN=C=S)C1CC1 (centres unmarked) [Compound F-03, reference compound] | 1.7 ng/mL | 1.6 ng/mL | 1.5 ng/mL | 35% | 0% | 5.8 µM | 4.9 µM | 3.3 µM | 2.9 µM | 5 to 10 µM | 55 to 60% | 1.7 ng/mL | 1.8 ng/mL | 1.8 ng/mL | 4.9 µM | 3.1 µM | 3.2 µM | 2.5 ± 0.6
CS/C=C/CCN=C=S [Compound F-06, reference compound] | 2.3 ng/mL | 2.0 ng/mL | 2.2 ng/mL | 80% | 16.7% | 17.2 µM | 16.3 µM | 17.8 µM | 15.6 µM | 15 to 20 µM | 70 to 75% | 2.8 ng/mL | 2.5 ng/mL | 2.3 ng/mL | 14.7 µM | 12 µM | 13.5 µM | 3.5 ± 0.2
